{
  "source": "ChEMBL document CHEMBL4017512",
  "about": "(J Med Chem, 2017)",
  "key": {"HCT-116": {"test_system": "HCT-116", "test": "Antiproliferative activity against human HCT116 cells after 72 hrs by phosphatase assay", "type": "functional, cell-based", "details": "HCT-116, 72 h"}, "[1]": {"test": "Cytotoxicity against human HCT116/VM46 cells assessed as reduction in cell viability after 72 hrs by phosphatase assay", "type": "cell-based", "details": "HCT-116/VM46, 72 h"}, "L1210": {"test_system": "L1210", "test": "Antiproliferative activity against mouse L1210 cells after 72 hrs by phosphatase assay", "type": "functional, cell-based", "details": "L1210, 72 h"}},
  "note": "pIC50: −log10 of the molar value.",
  "data": [
    {"compound": "CC[C@]1(NC(=O)c2cccc(OC(F)(F)F)c2)C[C@H]2CN(CCc3c([nH]c4ccccc34)[C@@](C(=O)OC)(c3cc4c(cc3OC)N(C)[C@H]3[C@@](O)(C(=O)OC)[C@H](OC(C)=O)[C@]5(CC)C=CCN6CC[C@]43[C@@H]65)C2)C1", "values": [
      {"measurement": "pIC50", "setting": "HCT-116", "value": 8.23},
      {"measurement": "pIC50", "setting": "[1]", "value": 7.30},
      {"measurement": "pIC50", "setting": "L1210", "value": 8.32}
    ]},
    {"compound": "CC[C@]1(NC(=O)c2ccc3ccsc3c2)C[C@H]2CN(CCc3c([nH]c4ccccc34)[C@@](C(=O)OC)(c3cc4c(cc3OC)N(C)[C@H]3[C@@](O)(C(=O)OC)[C@H](OC(C)=O)[C@]5(CC)C=CCN6CC[C@]43[C@@H]65)C2)C1", "values": [
      {"measurement": "pIC50", "setting": "HCT-116", "value": 8.54},
      {"measurement": "pIC50", "setting": "[1]", "value": 8.11},
      {"measurement": "pIC50", "setting": "L1210", "value": 8.51}
    ]},
    {"compound": "CC[C@]1(NC(=O)c2ccc3ocnc3c2)C[C@H]2CN(CCc3c([nH]c4ccccc34)[C@@](C(=O)OC)(c3cc4c(cc3OC)N(C)[C@H]3[C@@](O)(C(=O)OC)[C@H](OC(C)=O)[C@]5(CC)C=CCN6CC[C@]43[C@@H]65)C2)C1", "values": [
      {"measurement": "pIC50", "setting": "HCT-116", "value": 8.29},
      {"measurement": "pIC50", "setting": "[1]", "value": 7.15},
      {"measurement": "pIC50", "setting": "L1210", "value": 8.27}
    ]},
    {"compound": "CC[C@]1(NC(=O)c2cnc3ccccc3n2)C[C@H]2CN(CCc3c([nH]c4ccccc34)[C@@](C(=O)OC)(c3cc4c(cc3OC)N(C)[C@H]3[C@@](O)(C(=O)OC)[C@H](OC(C)=O)[C@]5(CC)C=CCN6CC[C@]43[C@@H]65)C2)C1", "values": [
      {"measurement": "pIC50", "setting": "HCT-116", "value": 8.23},
      {"measurement": "pIC50", "setting": "[1]", "value": 7.22},
      {"measurement": "pIC50", "setting": "L1210", "value": 8.21}
    ]},
    {"compound": "CC[C@]1(NC(=O)c2ccc(OCc3ccccc3)cc2)C[C@H]2CN(CCc3c([nH]c4ccccc34)[C@@](C(=O)OC)(c3cc4c(cc3OC)N(C)[C@H]3[C@@](O)(C(=O)OC)[C@H](OC(C)=O)[C@]5(CC)C=CCN6CC[C@]43[C@@H]65)C2)C1", "values": [
      {"measurement": "pIC50", "setting": "HCT-116", "value": 8.24},
      {"measurement": "pIC50", "setting": "[1]", "value": 7.26},
      {"measurement": "pIC50", "setting": "L1210", "value": 8.27}
    ]},
    {"compound": "CC[C@]1(NC(=O)C2CCCC2)C[C@H]2CN(CCc3c([nH]c4ccccc34)[C@@](C(=O)OC)(c3cc4c(cc3OC)N(C)[C@H]3[C@@](O)(C(=O)OC)[C@H](OC(C)=O)[C@]5(CC)C=CCN6CC[C@]43[C@@H]65)C2)C1", "values": [
      {"measurement": "pIC50", "setting": "HCT-116", "value": 7.60},
      {"measurement": "pIC50", "setting": "[1]", "value": 6.42},
      {"measurement": "pIC50", "setting": "L1210", "value": 7.52}
    ]},
    {"compound": "CC[C@]1(NC(=O)c2ccc(C)c(NC(=O)c3ccccc3)c2)C[C@H]2CN(CCc3c([nH]c4ccccc34)[C@@](C(=O)OC)(c3cc4c(cc3OC)N(C)[C@H]3[C@@](O)(C(=O)OC)[C@H](OC(C)=O)[C@]5(CC)C=CCN6CC[C@]43[C@@H]65)C2)C1", "values": [
      {"measurement": "pIC50", "setting": "HCT-116", "value": 8.12},
      {"measurement": "pIC50", "setting": "[1]", "value": 6.62},
      {"measurement": "pIC50", "setting": "L1210", "value": 7.52}
    ]},
    {"compound": "CC[C@]1(NC(=O)c2ccoc2)C[C@H]2CN(CCc3c([nH]c4ccccc34)[C@@](C(=O)OC)(c3cc4c(cc3OC)N(C)[C@H]3[C@@](O)(C(=O)OC)[C@H](OC(C)=O)[C@]5(CC)C=CCN6CC[C@]43[C@@H]65)C2)C1", "values": [
      {"measurement": "pIC50", "setting": "HCT-116", "value": 9.22},
      {"measurement": "pIC50", "setting": "[1]", "value": 8.20},
      {"measurement": "pIC50", "setting": "L1210", "value": 9.15}
    ]},
    {"compound": "CC[C@]1(NC(=O)c2ccc(OC)cc2)C[C@H]2CN(CCc3c([nH]c4ccccc34)[C@@](C(=O)OC)(c3cc4c(cc3OC)N(C)[C@H]3[C@@](O)(C(=O)OC)[C@H](OC(C)=O)[C@]5(CC)C=CCN6CC[C@]43[C@@H]65)C2)C1", "values": [
      {"measurement": "pIC50", "setting": "HCT-116", "value": 9.52},
      {"measurement": "pIC50", "setting": "[1]", "value": 8.12},
      {"measurement": "pIC50", "setting": "L1210", "value": 9.60}
    ]},
    {"compound": "CC[C@]1(NC(=O)c2ccc(OC)c(OC(F)(F)F)c2)C[C@H]2CN(CCc3c([nH]c4ccccc34)[C@@](C(=O)OC)(c3cc4c(cc3OC)N(C)[C@H]3[C@@](O)(C(=O)OC)[C@H](OC(C)=O)[C@]5(CC)C=CCN6CC[C@]43[C@@H]65)C2)C1", "values": [
      {"measurement": "pIC50", "setting": "HCT-116", "value": 8.66},
      {"measurement": "pIC50", "setting": "[1]", "value": 7.77},
      {"measurement": "pIC50", "setting": "L1210", "value": 8.77}
    ]},
    {"compound": "CC[C@]1(NC(=O)c2ccc3ccccc3n2)C[C@H]2CN(CCc3c([nH]c4ccccc34)[C@@](C(=O)OC)(c3cc4c(cc3OC)N(C)[C@H]3[C@@](O)(C(=O)OC)[C@H](OC(C)=O)[C@]5(CC)C=CCN6CC[C@]43[C@@H]65)C2)C1", "values": [
      {"measurement": "pIC50", "setting": "HCT-116", "value": 7.40},
      {"measurement": "pIC50", "setting": "[1]", "value": 6.57},
      {"measurement": "pIC50", "setting": "L1210", "value": 7.40}
    ]},
    {"compound": "CC[C@]1(NC(=O)c2ccncc2)C[C@H]2CN(CCc3c([nH]c4ccccc34)[C@@](C(=O)OC)(c3cc4c(cc3OC)N(C)[C@H]3[C@@](O)(C(=O)OC)[C@H](OC(C)=O)[C@]5(CC)C=CCN6CC[C@]43[C@@H]65)C2)C1", "values": [
      {"measurement": "pIC50", "setting": "HCT-116", "value": 9.40},
      {"measurement": "pIC50", "setting": "[1]", "value": 7.26},
      {"measurement": "pIC50", "setting": "L1210", "value": 9.40}
    ]},
    {"compound": "CC[C@]1(N)C[C@H]2CN(CCc3c([nH]c4ccccc34)[C@@](C(=O)OC)(c3cc4c(cc3OC)N(C)[C@H]3[C@@](O)(C(=O)OC)[C@H](OC(C)=O)[C@]5(CC)C=CCN6CC[C@]43[C@@H]65)C2)C1", "values": [
      {"measurement": "pIC50", "setting": "[1]", "value": "< 5.00"}
    ]},
    {"compound": "CC[C@]1(NS(=O)(=O)c2ccc(C)cc2)C[C@H]2CN(CCc3c([nH]c4ccccc34)[C@@](C(=O)OC)(c3cc4c(cc3OC)N(C)[C@H]3[C@@](O)(C(=O)OC)[C@H](OC(C)=O)[C@]5(CC)C=CCN6CC[C@]43[C@@H]65)C2)C1", "values": [
      {"measurement": "pIC50", "setting": "HCT-116", "value": 7.52},
      {"measurement": "pIC50", "setting": "[1]", "value": 6.48},
      {"measurement": "pIC50", "setting": "L1210", "value": 7.40}
    ]},
    {"compound": "CC[C@]1(NC(=O)C2Cc3ccccc3C2)C[C@H]2CN(CCc3c([nH]c4ccccc34)[C@@](C(=O)OC)(c3cc4c(cc3OC)N(C)[C@H]3[C@@](O)(C(=O)OC)[C@H](OC(C)=O)[C@]5(CC)C=CCN6CC[C@]43[C@@H]65)C2)C1", "values": [
      {"measurement": "pIC50", "setting": "HCT-116", "value": 7.82},
      {"measurement": "pIC50", "setting": "[1]", "value": 7.10},
      {"measurement": "pIC50", "setting": "L1210", "value": 7.52}
    ]},
    {"compound": "CCOc1ccc(C(=O)N[C@@]2(CC)C[C@H]3CN(CCc4c([nH]c5ccccc45)[C@@](C(=O)OC)(c4cc5c(cc4OC)N(C)[C@H]4[C@@](O)(C(=O)OC)[C@H](OC(C)=O)[C@]6(CC)C=CCN7CC[C@]54[C@@H]76)C3)C2)cc1OCC", "values": [
      {"measurement": "pIC50", "setting": "HCT-116", "value": 9.30},
      {"measurement": "pIC50", "setting": "[1]", "value": 8.22},
      {"measurement": "pIC50", "setting": "L1210", "value": 9.40}
    ]},
    {"compound": "CC[C@]1(N=[N+]=[N-])C[C@H]2CN(CCc3c([nH]c4ccccc34)[C@@](C(=O)OC)(c3cc4c(cc3OC)N(C)[C@H]3[C@@](O)(C(=O)OC)[C@H](OC(C)=O)[C@]5(CC)C=CCN6CC[C@]43[C@@H]65)C2)C1", "values": [
      {"measurement": "pIC50", "setting": "[1]", "value": 5.26}
    ]},
    {"compound": "CC[C@]1(NC(=O)C2CCC2)C[C@H]2CN(CCc3c([nH]c4ccccc34)[C@@](C(=O)OC)(c3cc4c(cc3OC)N(C)[C@H]3[C@@](O)(C(=O)OC)[C@H](OC(C)=O)[C@]5(CC)C=CCN6CC[C@]43[C@@H]65)C2)C1", "values": [
      {"measurement": "pIC50", "setting": "HCT-116", "value": 8.27},
      {"measurement": "pIC50", "setting": "[1]", "value": 7.07},
      {"measurement": "pIC50", "setting": "L1210", "value": 8.27}
    ]},
    {"compound": "CC[C@]1(NC(=O)c2ccc(OC(F)(F)F)c(OC)c2)C[C@H]2CN(CCc3c([nH]c4ccccc34)[C@@](C(=O)OC)(c3cc4c(cc3OC)N(C)[C@H]3[C@@](O)(C(=O)OC)[C@H](OC(C)=O)[C@]5(CC)C=CCN6CC[C@]43[C@@H]65)C2)C1", "values": [
      {"measurement": "pIC50", "setting": "HCT-116", "value": 8.77},
      {"measurement": "pIC50", "setting": "[1]", "value": 8.16},
      {"measurement": "pIC50", "setting": "L1210", "value": 8.89}
    ]},
    {"compound": "CC[C@]1(NC(=O)/C=C/c2ccccc2)C[C@H]2CN(CCc3c([nH]c4ccccc34)[C@@](C(=O)OC)(c3cc4c(cc3OC)N(C)[C@H]3[C@@](O)(C(=O)OC)[C@H](OC(C)=O)[C@]5(CC)C=CCN6CC[C@]43[C@@H]65)C2)C1", "values": [
      {"measurement": "pIC50", "setting": "HCT-116", "value": 9.05},
      {"measurement": "pIC50", "setting": "[1]", "value": 7.70},
      {"measurement": "pIC50", "setting": "L1210", "value": 9.10}
    ]},
    {"compound": "CC[C@]1(NC(=O)c2ccc(NC(=O)OC)cc2)C[C@H]2CN(CCc3c([nH]c4ccccc34)[C@@](C(=O)OC)(c3cc4c(cc3OC)N(C)[C@H]3[C@@](O)(C(=O)OC)[C@H](OC(C)=O)[C@]5(CC)C=CCN6CC[C@]43[C@@H]65)C2)C1", "values": [
      {"measurement": "pIC50", "setting": "HCT-116", "value": 9.10},
      {"measurement": "pIC50", "setting": "[1]", "value": 7.26},
      {"measurement": "pIC50", "setting": "L1210", "value": 8.82}
    ]},
    {"compound": "CC[C@@H]1C[C@H]2CN(CCc3c([nH]c4ccccc34)[C@@](C(=O)OC)(c3cc4c(cc3OC)N(C)[C@H]3[C@@](O)(C(=O)OC)[C@H](OC(C)=O)[C@]5(CC)C=CCN6CC[C@]43[C@@H]65)C2)C1", "note": "[ROSEAMINE]", "values": [
      {"measurement": "pIC50", "setting": "[1]", "value": 6.22}
    ]}
  ]
}
